Patent US20130237582A1, “PHARMACEUTICAL COMBINATION OF PACLITAXEL AND A CDK INHIBITOR” (Piramal Enterprises Limited, priority 2010, published 2013)

What was measured:
MDA-MB-231 = experiment: Cell cycle progression and apoptosis by flow cytometry (sub-G1); format: cell-based, human; details: for % Apoptosis: 4.5 μM
Experimental: Time dependent effect of Compound A on cell cycle progression and apoptosis was evaluated in two breast cancer cell lines. The asynchronous human breast cancer cell lines MCF-7 (Her low, ER+, PR+, BRCA+/−allelic loss) and MDA-MB-231 cells were seeded in […] tissue culture flask at a density of 0.5×10^6 cells per flask in RPMI 1460 with 10% FCS. After 24 h, cells were treated with 4.5 μM of Compound A for 0, 24, 48 and 72 h. Both detached and adherent cells were harvested (trypsinised) at different time points as mentioned in Table 3. After washing in phosphate buffered saline (PBS), cells were fixed in ice-cold 70% ethanol and stored at −20° C. until further analysis.
(§1) Before analysis, cells were washed twice with PBS to remove the fixative and re-suspended in PBS containing 50 μg/mL propidium iodide and 50 μg/mL RNaseA. After incubation at room temperature (20-35° C.) for 20 min, cells were analyzed using flow cytometry. A Becton Dickinson FACS Calibur flow cytometer (BD, USA) was used for these studies. The argon ion laser set at 488 nm was used as an excitation source. Cells with DNA content between 2n and 4n were designated as being in G1, S and G2/M phases of the cell cycle, as defined by the level of red fluorescence. […] The number of cells in each cell cycle compartment was expressed as a percentage of the total number of cells present. The results are shown in Table 3 and graphically presented in FIG. 3A (MCF-7 cell lines) and FIG. 3B (MDA-MB-231 cell lines).
(§2) Comparison of the effect of Compound A and PARP inhibitor BSI-201 (Iniparib developed by Sanofi-Aventis. BSI-201 is prepared in-house) on cell cycle progression and apoptosis was evaluated in two TNBC cell lines. The asynchronous human TNBC cell lines MDA-MB-231 and MDA-MB-468 were seeded in […] tissue culture flask at a density of 0.5×10^6 cells per flask in RPMI 1460 with 10% FCS. After 24 h, cells were treated either with 1.5 and 3.0 μM of Compound A or 50 μM of PARP inhibitor BSI-201 for 72 h. After the incubation cells were harvested (trypsinised) and processed as given in example 6.

MDA-MB-468 = experiment: as above; format: cell-based, human
Experimental: as §1, §2

Bcl-2 = experiment: Western blot analysis in MDA-MB-231 cells; format: cell-based, human; details: 1.5 and 4.5 μM, 6, 24 and 30 h
Experimental: The Western blot assay was carried out according to the procedure disclosed in Molecular Cancer Therapeutics, 2007, 6, 918-925 with some modifications.
MCF-7 and MDA-MB-231 cells were seeded in RPMI 1460 medium with 10% FCS in […] tissue culture flask and incubated for 24 h. The cells were treated with Compound A at 1.5 and 4.5 μM. At various time points, i.e. 6, 24 and 30 h the cells were harvested or trypsinized and lysed using lysis buffer (Sigma Aldrich, USA). Protein content was estimated. Lysate was applied to Sodium Dodecyl Sulphate-Polyacrylamide Gel Electrophoresis (SDS-PAGE) followed by western blotting (Molecular Cancer Therapeutics, 2007, 6, 918-925). Western blotting was done using specific antibodies to Bcl-2 and actin. The results are depicted in FIG. 4.

HIF-1α = HIF-1α reporter gene based assay (U251 HRE); format: cell-based; details: hypoxia (<1% O2), 0.01-10 μM, 20 h
Description: (§3) 1) U251 HRE: The genetically engineered cells U251 HRE which stably express a recombinant vector in which the Luciferase reporter gene is under control of three copies of a canonical HRE. 2) U251 pGL3: A control cell line contains the firefly Luciferase reporter gene under control of the constitutively active SV40 promoter and enhancer that helps to exclude compounds that inhibit Luciferase expression in a nonspecific and/or HIF-1-independent fashion. These cells expressed high basal levels of Luciferase in normoxic conditions and slightly lower levels in hypoxic conditions.
(§4) U251 HRE cells were inoculated into 96 well white flat-bottomed plates at 10000-15000 cells/well in a volume of 180 μL and incubated for 24 h at 37° C., 5% CO2, and ambient O2. Compound A was tested at various concentrations viz. […] After 20 h incubation, the plates were removed and incubated at room temperature, 5% CO2, and ambient O2 for 1.5 h. 40 μL of Bright Glo Luciferase reagent (Promega™, USA) was added and after 3 min, luminescence was measured using a Polar Star Plate Reader (USA) in luminescence mode. Appropriate control cells (U251 pGL3) were treated identically, except that they were treated at 37° C., 5% CO2 and ambient O2. Compound toxicity was assayed using the MTS assay.

U251 pGL3 = experiment: Control luciferase reporter cell line (U251 pGL3); format: cell-based; details: normoxia
Description: as §3, §4

[1] = tested on: MCF-7, BT-549 and MDA-MB-231 cell lines; experiment: Wound healing assay (cell migration); format: cell-based, human; details: 1 μM and 3 μM; 24 h
Experimental: The wound-healing assay is simple, inexpensive, and one of the earliest developed methods to study directional cell migration in vitro. This method mimics cell migration during wound healing in vivo.
Protocol: • 1. MCF-7 cells were seeded in RPMI 1460 medium with 10% FCS in […] tissue culture flask and incubated for 24 h. • 2. The cells were trypsinized and seeded at a density of (0.5−2.0)×10^6 per well in a sterile 6 well plate. • 3. The plate was incubated for about 16 h in humidified CO2 incubator (5% CO2) at 37° C. under ambient oxygen levels. […] The required number of cells for a confluent monolayer depends on both the particular cell type and size of dishes. • 4. The cell monolayer in a straight line was scraped evenly to create a “scratch” with a pipette tip. The first image of the scratches was captured before addition of the compound. • 5. Compound A was added at concentrations of 1 μM and 3 μM. • 6. The plates were then kept in the incubator for further incubation. The time frame for incubation was determined empirically for the particular cell type used. • 7. After the incubation, the dish was placed under a phase contrast microscope (Zeiss Axio Observer, Germany), reference point was matched, the photographed regions of the first image were aligned and the second image was captured. For each image distances between one side of the scratch and the other were measured. […]

## CN1CC[C@@H](c2c(O)cc(O)c3c(=O)cc(-c4ccccc4Cl)oc23)[C@@H]1CO.Cl [Compound A, (+)-trans-2-(2-Chloro-phenyl)-5,7-dihydroxy-8-(2-hydroxymethyl-1-methyl-pyrrolidin-3-yl)-chromen-4-one hydrochloride]
MDA-MB-231; 1.5 μM, 72 h
  % apoptosis at 72 h: 27.45%
MDA-MB-231; 3 μM, 72 h
  % apoptosis at 72 h: 41.53%
MDA-MB-231; 0 h
  % Apoptosis: 1%
MDA-MB-231; 24 h
  % Apoptosis: 45%
MDA-MB-231; 48 h
  % Apoptosis: 85%
MDA-MB-231; 72 h
  % Apoptosis: 85%
MDA-MB-468; 1.5 μM
  % apoptosis at 72 h: 36.09%
MDA-MB-468; 3 μM
  % apoptosis at 72 h: 62.5%
Bcl-2
  expression of antiapoptotic protein Bcl-2: significant down regulation was observed at 30 h
HIF-1α
  expression of HIF-1α (luciferase reporter): effectively blocked the expression of HIF-1α in a dose dependent manner
U251 pGL3
  luciferase expression in control cell line: did not inhibit the luciferase expression
[1]
  cell migration (wound healing): potent anti migratory effect
